In PubChem BioAssay AID256 (DTP/NCI, 2004) one finds T/C data, which are given here for 26 compounds.

This test deals with CD2F1 mice, L1210 leukemia ip, survival T/C. Briefly: NCI In Vivo Anticancer Drug Screen. Data for tumor model L1210 Leukemia (intraperitoneal) in CD2F1 (CDF1) mice. Particulars: endpoint: mean survival time, higher = longer survival. The procedure, abridged:
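Activity against a transplanted murine tumor was judged by comparing the compound group with a vehicle group. The outcome in the treated animals was divided by that in the controls.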

Where [1] appears, read: dose: 100.0 mg/kg/injection, schedule: Q01DX001 (ip), vehicle: other.
Setting [2] is: dose: 200.0 mg/kg/injection, schedule: Q01DX001 (ip), vehicle: other.
[3] abbreviates: dose: 400.0 mg/kg/injection, schedule: Q01DX001 (ip), vehicle: other.
The mark [4] stands for this setting: dose: 100.0 mg/kg/injection, schedule: Q01DX009 (ip), vehicle: other.
The mark [5] stands for this setting: dose: 200.0 mg/kg/injection, schedule: Q01DX009 (ip), vehicle: other.
Where [6] appears, read: dose: 100.0 mg/kg/injection, schedule: Q01DX001 (ip), vehicle: saline.
Where [7] appears, read: dose: 200.0 mg/kg/injection, schedule: Q01DX001 (ip), vehicle: saline.
[8] abbreviates: dose: 100.0 mg/kg/injection, schedule: Q04DX003 (ip), vehicle: saline with Tween-80.
[9] abbreviates: dose: 200.0 mg/kg/injection, schedule: Q04DX003 (ip), vehicle: saline with Tween-80.
[10] abbreviates: dose: 400.0 mg/kg/injection, schedule: Q04DX003 (ip), vehicle: saline with Tween-80.
Where [11] appears, read: dose: 100.0 mg/kg/injection, schedule: Q01DX009 (ip), vehicle: saline with Tween-80.
The mark [12] stands for this setting: dose: 200.0 mg/kg/injection, schedule: Q01DX009 (ip), vehicle: saline with Tween-80.
Where [13] appears, read: dose: 400.0 mg/kg/injection, schedule: Q01DX009 (ip), vehicle: saline with Tween-80.
Setting [14] is: dose: 100.0 mg/kg/injection, schedule: Q01DX001 (ip), vehicle: saline with Tween-80.
Setting [15] is: dose: 12.5 mg/kg/injection, schedule: Q04DX003 (ip), vehicle: saline.
Where [16] appears, read: dose: 25.0 mg/kg/injection, schedule: Q04DX003 (ip), vehicle: saline.
The mark [17] stands for this setting: dose: 50.0 mg/kg/injection, schedule: Q01DX009 (ip), vehicle: saline.
[18] abbreviates: dose: 400.0 mg/kg/injection, schedule: Q01DX009 (ip), vehicle: other.
Where [19] appears, read: dose: 100.0 mg/kg/injection, schedule: Q01DX009 (ip), vehicle: saline.
The mark [20] stands for this setting: dose: 200.0 mg/kg/injection, schedule: Q01DX009 (ip), vehicle: saline.

Inconclusive results and toxic doses are left out.

Consider `O=C(O/N=C(\c1ccccc1)c1cccs1)N(c1ccccc1)c1ccccc1`, for which the T/C is, setting by setting: under setting [1], 92 % of control; under setting [2], 98 % of control; under setting [3], 92 % of control.

Regarding `CCCCCCCCCCCCCCCCCC(=O)CC`, the T/C is 93 % of control (dose: 100.0 mg/kg/injection, schedule: Q04DX002 (ip), vehicle: saline + alcohol); 93 % of control (dose: 200.0 mg/kg/injection, schedule: Q04DX002 (ip), vehicle: saline + alcohol); 93 % of control (dose: 400.0 mg/kg/injection, schedule: Q04DX002 (ip), vehicle: saline + alcohol).

As for `CC1(C)/C(=N/Nc2ccc([N+](=O)[O-])cc2[N+](=O)[O-])CCc2ccccc21`, the T/C reads like this: (dose: 12.5 mg/kg/injection, schedule: Q01DX009 (ip), vehicle: other) 94 % of control; (dose: 25.0 mg/kg/injection, schedule: Q01DX009 (ip), vehicle: other) 97 % of control; (dose: 50.0 mg/kg/injection, schedule: Q01DX009 (ip), vehicle: other) 90 % of control; under setting [4], 94 % of control; under setting [5], 90 % of control.

For the compound `CCCCCNC(=O)CCC(NC(=O)c1ccc(N(C)Cc2cnc3nc(N)nc(N)c3n2)cc1)C(=O)O` (stereo unspecified), the T/C is 107 % of control (dose: 1.0 mg/kg/injection, schedule: Q01DX009 (ip), vehicle: sodium bicarbonate); 118 % of control (dose: 10.0 mg/kg/injection, schedule: Q01DX009 (ip), vehicle: sodium bicarbonate); 122 % of control (dose: 50.0 mg/kg/injection, schedule: Q01DX009 (ip), vehicle: sodium bicarbonate); 152 % of control (dose: 200.0 mg/kg/injection, schedule: Q01DX009 (ip), vehicle: sodium bicarbonate); 164 % of control (dose: 400.0 mg/kg/injection, schedule: Q01DX009 (ip), vehicle: sodium bicarbonate).

On to `CN(C)CCOC(=O)COc1ccc(Cl)cc1`, for which the T/C under setting [6] was 97 % of control; the T/C under setting [7] was 100 % of control; the T/C (dose: 400.0 mg/kg/injection, schedule: Q01DX001 (ip), vehicle: saline) was 94 % of control.

With `CC(C)(C)C(=O)CC(=O)C(C)(C)C.CC(C)(C)C(=O)CC(=O)C(C)(C)C.CC(C)(C)C(=O)CC(=O)C(C)(C)C.[Nd]`, the T/C by setting is: under setting [8], 101 % of control; under setting [9], 95 % of control; under setting [10], 95 % of control.

For the compound `CCCCc1nc2c(O)ccc(O)c2nc1C`, the T/C runs as follows: (dose: 18.75 mg/kg/injection, schedule: Q01DX009 (ip), vehicle: other) 96 % of control; (dose: 37.5 mg/kg/injection, schedule: Q01DX009 (ip), vehicle: other) 94 % of control; (dose: 75.0 mg/kg/injection, schedule: Q01DX009 (ip), vehicle: other) 90 % of control.

Consider `COc1ccc(C(O)(c2ccc(OC)cc2)C(c2ccccc2)c2ccccc2)cc1`, for which the T/C under setting [11] is 100 % of control, the T/C under setting [12] was 96 % of control and the T/C under setting [13] is 97 % of control.

As for `CC(CC(=O)O)(C(=O)O)S(=O)O` (stereo unspecified), the T/C is 97 % of control (dose: 100.0 mg/kg/injection, schedule: Q04DX002 (ip), vehicle: other); 100 % of control (dose: 200.0 mg/kg/injection, schedule: Q04DX002 (ip), vehicle: other); 100 % of control (dose: 400.0 mg/kg/injection, schedule: Q04DX002 (ip), vehicle: other).

For the compound `CCCCCCCCCC/C=C/C1=C(N=[N+]=N)C(=O)c2ccccc2C1=O`, the T/C under setting [1] is 92 % of control, the T/C under setting [2] is 92 % of control and the T/C under setting [3] was 94 % of control.

For `COc1cc(Br)c(CC2c3cc(OC)c(OC)cc3CCN2C)cc1OC` (stereo unspecified), the T/C reads like this: under setting [6], 101 % of control; under setting [7], 101 % of control.

For the compound `Cc1c(Cl)cccc1NS(=O)(=O)c1ccccc1`, the T/C is, setting by setting: under setting [11], 108 % of control; under setting [8], 92 % of control; under setting [12], 103 % of control; under setting [9], 99 % of control; under setting [13], 103 % of control; under setting [10], 99 % of control.

Consider `CCOC(=O)C(O)(C(=O)OCC)C(C)C`, for which the T/C by setting is: under setting [11], 94 % of control; under setting [12], 100 % of control; under setting [13], 94 % of control.

For the compound `CCCN1C(=O)C=CC1=O`, the T/C under setting [14] is 91 % of control.

As to `C/C(=N\O)C1(C)CC=CCC1C(=O)O` (stereo unspecified), the T/C reads like this: under setting [11], 90 % of control; under setting [8], 100 % of control; under setting [12], 93 % of control; under setting [9], 96 % of control; under setting [13], 94 % of control; under setting [10], 94 % of control.

For `OCP(CO)CO.[Cl][Hg][Cl]`, the T/C runs as follows: under setting [15], 119 % of control; under setting [16], 116 % of control.

As for `C=C(C)CS(=O)[O-].[C-]#[O+].[C-]#[O+].[Fe+6].[c-]1[c-][c-][cH-][c-]1`, the T/C is 97 % of control (dose: 6.25 mg/kg/injection, schedule: Q04DX002 (ip), vehicle: saline); 97 % of control (dose: 12.5 mg/kg/injection, schedule: Q04DX002 (ip), vehicle: saline); 97 % of control (dose: 25.0 mg/kg/injection, schedule: Q04DX002 (ip), vehicle: saline).

In the case of `CCN(CCc1ccc(N)cc1)C(Cc1ccccc1)c1cccc(OC)c1` (stereo unspecified), the T/C is, setting by setting: (dose: 12.5 mg/kg/injection, schedule: Q01DX009 (ip), vehicle: saline) 102 % of control; under setting [15], 103 % of control; (dose: 25.0 mg/kg/injection, schedule: Q01DX009 (ip), vehicle: saline) 97 % of control; under setting [16], 97 % of control; under setting [17], 100 % of control; (dose: 50.0 mg/kg/injection, schedule: Q04DX003 (ip), vehicle: saline) 95 % of control.

As for `O=C(NC(CSSCC(NC(=O)OCc1ccccc1)C(=O)O)C(=O)O)OCc1ccccc1` (stereo unspecified), the T/C runs as follows: under setting [4], 95 % of control; under setting [5], 95 % of control; under setting [18], 98 % of control.

As for `CCOC(=O)NCC1CCC(CO)CC1` (stereo unspecified), the T/C by setting is: (dose: 100.0 mg/kg/injection, schedule: Q04DX002 (ip), vehicle: saline with Tween-80) 95 % of control; (dose: 200.0 mg/kg/injection, schedule: Q04DX002 (ip), vehicle: saline with Tween-80) 117 % of control; (dose: 400.0 mg/kg/injection, schedule: Q04DX002 (ip), vehicle: saline with Tween-80) 98 % of control.

In the case of `Cc1[nH]c2ccccc2c1C1=CC(=O)c2ccccc2C1=O`, the T/C is, setting by setting: under setting [8], 106 % of control; under setting [9], 104 % of control; under setting [10], 104 % of control.

For the compound `O=C1Nc2ccc(C(=O)O)c(O)c2C1=O`, the T/C is 96 % of control under setting [14]; 100 % of control (dose: 200.0 mg/kg/injection, schedule: Q01DX001 (ip), vehicle: saline with Tween-80); 89 % of control (dose: 400.0 mg/kg/injection, schedule: Q01DX001 (ip), vehicle: saline with Tween-80).

In the case of `O=NN(CS(=O)(=O)O)c1ccccc1`, the T/C reads like this: under setting [17], 101 % of control; under setting [19], 107 % of control; under setting [20], 95 % of control.

In the case of `O=C1CC(=O)NC(=S)N1`, the T/C was 95 % of control under setting [19] and 93 % of control under setting [20].

`COc1ccc(O)cc1C`: the T/C under setting [4] is 96 % of control, the T/C under setting [5] was 102 % of control and the T/C under setting [18] was 98 % of control.

Regarding `CCCCC(CC)CNC1=C(Cl)C(=O)c2ccccc2C1=O` (stereo unspecified), the T/C by setting is: (dose: 25.0 mg/kg/injection, schedule: Q04DX003 (ip), vehicle: saline with Tween-80) 98 % of control; (dose: 50.0 mg/kg/injection, schedule: Q04DX003 (ip), vehicle: saline with Tween-80) 106 % of control; under setting [8], 95 % of control.
